In the assay the test system is gonarthrosis induced by partial excision of medial meniscus/abscission of bilateral collateral ligaments. In words: Regenerative healing effects on gonarthrosis induced by partial excision of medial meniscus/abscission of bilateral collateral ligaments. The assay is classed as in vivo, rabbit. The conditions noted are these: 1 μg in microsphere of Example 7-(1), intra-articular two and six weeks after operation; ten weeks after operation; control 18.86 ± 2.03. The procedure: Japanese White rabbits (male; 10-week-old; 7 rabbits/group) were housed for 16 days at room temperature (23±2° C.) and 55±15% humidity. During the housing period, the rabbits were free to access commercially available food (Oriental Bio Service; LRC4).
Under ether anesthesia, the right knee joint of each rabbit was excised and ½ portion of medial meniscus was isolated with double-edged small straight scissors. The bilateral collateral ligaments were also cut. After the operation, muscle and epidermal tissues were sutured and sterilized. Two weeks from the operation, under ether anesthesia, each rabbit of the test group (7 rabbits/group) was administered intra-articularly the drug-containing microsphere prepared in Example 7-(1), which contains 1 μg of Compound (2). The rabbit of the control group (7 rabbits/group) received the same amount of drug-free microsphere prepared in Control Example 2. […]
After wiping off the excess India Ink, the overhead surface image of the formalin-fixed tibial proximal end was imported into an analyzer, Image Analyzer (IMAGING RESEARCH, MICD imaging analyzer), with a stereomicroscope (OLYMPUS OPTICAL Co., Ltd. model SZX12-2111). […] The gross medial area was also measured and the percentage (%) (the degenerated area rate) of the degenerated medial area in the gross medial area was calculated.

Take `CCOc1cc2cc(CO)c(CO)c(-c3ccnc(-n4nc(-c5cccnc5)c5ccccc5c4=O)c3)c2cc1OCC` [Compound (2)]: the “Degenerated Area Rate (%)” value stood at 10.16 ± 1.35%.

The record behind these values is US8399466B2, “Composition for regenerative treatment of cartilage disease” (Mitsubishi Tanabe Pharma Corporation, priority 2001, dated 2013).
